How the values were obtained:
Type in all cases: cell-based
human aggrecan = assay: Aggrecan gene expression (mRNA, RT-PCR) in normal human chondrocytes; settings: anabolic gene, % of unstimulated cells (set at 100%), CS 500 mg/L, or both; for Aggrecan (unstim., 4 hrs) level of gene expression: HT 1.925 mg/L (12.5 micromol/L); for Aggrecan (unstim. 4 d) level of gene expression: HT 1.925 mg/L
From the text: (§1) In articular cartilage, the balance between anabolic (build-up) and catabolic (break down) events needs to be maintained in order to prevent hypertrophy and excessive degradation of extracellular matrix (ECM), respectively. The ECM is built up of collagen and proteoglycans that are the products of collagen genes, for example human collagen I or aggrecan genes which are actived during anabolic events. A substance which increases expression of these genes or the respective proteins (i.e. collagen and aggrecan) favors cartilage regeneration and/or build-up. The effect of HT in combination with chondroitin was tested on the expression of human aggrecan or collagen I in normal human chondrocytes (derived from knee) (CC-2550; Cambrex, respectively). OH-tyrosol (HT) was from Cayman Chemicals or from DSM; chondroitin sulfate (from shark) was purchased from Sigma. A control experiment without the compounds was done concomitantly to compare the expression of these genes. Normal human chondrocytes were cultured for 4 hours or 4 days with HT (at 12.5 micromol/L), chondroitin (at 500 mg/L) as well as with both. The level of mRNA was determined by RT-PCR (Richard et al. Mol. Nutr. Food Res. 49, 431-442, 2005) and expressed relative to the level observed in cells cultured without the substances. The given values indicate the level of gene expression (in % of unstimulated cells [set at 100%] for anabolic and anti-catabolic genes; in % of IL1beta-treated cells [set at 100%], for catabolic genes). The combination of HT was used at 12.5 micromol/L (=1.925 mg/L), while the chondroitin sulfate (CS) was tested at 500 mg/L. The results shown in Table 1 indicate that a HT altered the expression of anabolic genes such as aggrecan or collagen. Similar effects were elicited by chondroitin. Yet, when combined the observed increase in gene expression exceeded the expected value reflecting a synergistic interaction.

human collagen I = assay: Collagen I gene expression (mRNA, RT-PCR) in normal human chondrocytes; settings: anabolic gene, % of unstimulated cells (set at 100%), HT 1.925 mg/L, CS 500 mg/L, or both
From the text: as §1, with “The given values indicate the level of gene expression (in % of unstimulated cells [set at 100%] for anabolic and anti-catabolic genes; in % of IL1beta-treated cells [set at 100%], for catabolic genes). The combination of HT was used at 12.5 micromol/L (=1.925 mg/L), while the chondroitin sulfate (CS) was tested at 500 mg/L. The results shown in Table 1 indicate that a HT altered the expression of anabolic genes such as aggrecan or collagen. Similar effects were elicited by chondroitin. Yet, when combined the observed increase in gene expression exceeded the expected value reflecting a synergistic interaction.” left out

MMP-1 = MMP-1 gene expression (mRNA, RT-PCR) in IL1beta-treated normal human chondrocytes; settings: catabolic gene, % of IL1beta-treated cells (set at 100%), HT 1.925 mg/L, CS 500 mg/L, or both
Experimental: (§2) Catabolic events are controlled by the expression of genes, e.g. those genes that encode matrix metalloproteinases (MMPs) that eventually break down collagen. Of the MMPs, MMP-1 and MMP-3 have a major role in the degradation of the ECM and thus in cartilage erosion. The effect of HT in combination with chondroitin was tested on the expression of human aggrecan or collagen I in normal human chondrocytes (derived from knee) (CC-2550; Cambrex, respectively). OH-tyrosol (HT) was from Cayman Chemicals or from DSM; chondroitin sulfate (from shark) was purchased from Sigma. A control experiment without the compounds was done concomitantly to compare the expression of these genes. Normal human chondrocytes were cultured for 4 hours or 4 days with HT (at 12.5 micromol/L), chondroitin (at 500 mg/L) as well as with both. The level of mRNA was determined by RT-PCR (Richard et al. Mol. Nutr. Food Res. 49, 431-442, 2005) and expressed relative to the level observed in cells cultured without the substances. The given values indicate the level of gene expression (in % of unstimulated cells [set at 100%] for anabolic and anti-catabolic genes; in % of IL1beta-treated cells [set at 100%], for catabolic genes). […]

MMP-2 = MMP-2 gene expression (mRNA, RT-PCR) in IL1beta-treated normal human chondrocytes; settings: catabolic gene, % of IL1beta-treated cells (set at 100%), HT 1.925 mg/L, CS 500 mg/L, or both
Experimental: as §2

MMP-13 = MMP-13 gene expression (mRNA, RT-PCR) in IL1beta-treated normal human chondrocytes; settings: catabolic gene, % of IL1beta-treated cells (set at 100%), HT 1.925 mg/L, CS 500 mg/L, or both
Experimental: as §2

IL-1beta = IL-1beta gene expression (mRNA, RT-PCR) in IL1beta-treated normal human chondrocytes; settings: catabolic gene, % of IL1beta-treated cells (set at 100%), HT 1.925 mg/L, CS 500 mg/L, or both
Experimental: as §1, with “The” for “In articular cartilage, the balance between anabolic (build-up) and catabolic (break down) events needs to be maintained in order to prevent hypertrophy and excessive degradation of extracellular matrix (ECM), respectively. The ECM is built up of collagen and proteoglycans that are the products of collagen genes, for example human collagen I or aggrecan genes which are actived during anabolic events. A substance which increases expression of these genes or the respective proteins (i.e. collagen and aggrecan) favors cartilage regeneration and/or build-up. The”

Molecule | Aggrecan (unstim., 4 hrs) level of gene expression (human aggrecan) [%] | Aggrecan (unstim. 4 d) level of gene expression (human aggrecan) [%] | Collagen 1 (unstim. 4 d) level of gene expression (human collagen I) [%] | MMP-1 (stim., 4 d) level of gene expression (MMP-1) [%] | MMP-2 (stim., 4 hrs) level of gene expression (MMP-2) [%] | MMP-13 (stim., 4 hrs) level of gene expression (MMP-13) [%] | IL-1beta (stim., 4 hrs) level of gene expression (IL-1beta) [%]
OCCc1ccc(O)c(O)c1 [HT, 2-(3,4-dihydroxyphenyl)-ethanol] | 115 | 118 | 113 | 109 | 102 | 96 | 83
chondroitin sulfate [CS] | 113 | 97 | 103 | 122 | 116 | 90 | 91

Source: patent publication US20110014308A1, “NOVEL COMPOSITIONS AND USE THEREOF FOR THE TREATMENT, CO-TREATMENT OR PREVENTION OF INFLAMMATORY DISORDERS” (priority 2007, published 2011)
